Data set [1] relates to MEK. The data set is described as follows: Cellular assay for MEK inhibition: ERK phosphorylation in C26 cells, pERK ELISA format (C26ELSA). The format is cell-based. The note with it: inhibition of ERK phosphorylation, murine colon 26 (C26) carcinoma cells, one hour at 37° C. How it is done:
(§1) Cellular Assay for Measuring MEK Inhibition
(§2) MEK inhibitors were evaluated by determining their ability to inhibit phosphorylation of MAP kinase (ERK) in murine colon 26 (C26) carcinoma cells. Since ERK1 and ERK2 represent the only known substrates for MEK1and MEK2, the measurement of inhibition of ERK phosphorylation in cells provides direct read out of cellular MEK inhibition by the compounds of the invention. Detection of phosphorylation of ERK was carried out either by Western blot or ELISA format. Briefly, the assays involve treatment of exponentially growing C26 cells with varying concentrations of the test compound (or vehicle control) for one hour at 37° C. For Western blot assay, cells were rinsed free of compound/vehicle and lysed in a solution containing 70 mM NaCl, 50 mM glycerol phosphate, 10 mM HEPES, pH 7.4, 1% Triton X-100, 1 mM Na3VO4, 100 μM PMSF, 10 μM leupeptin and 10 μM pepstatin. Supernatants were then subjected to gel electrophoresis and hybridized to a primary antibody recognizing dually phosphorylated ERK1 and ERK2. To evaluate total MAPK levels, blots were subsequently ‘stripped’ and re-probed with a 1:1 mixture of polyclonal antibodies recognizing unphosphorylated ERK1 and ERK2. For pERK ELISA assay, pERK TiterZyme Enzyme immunometric Assay kits were acquired from Assay Designs, Inc (Ann Arbor, Mich.). […]
A general note: An ELISA detects its analyte on a solid surface through an enzyme-linked reagent.

Data set [2] deals with MEK. The data set is described as follows: Cellular assay for MEK inhibition: ERK phosphorylation in C26 cells (C26CPA1). Format: cell-based. The note with it: inhibition of ERK phosphorylation, murine colon 26 (C26) carcinoma cells, one hour at 37° C. How it is done: as §1, §2

For the compound `O=C(CO)c1ccc(F)c(F)c1Nc1ccc(I)cc1F` [Example 1, 1-[3,4-Difluoro-2-(2-fluoro-4-iodo-phenylamino)-phenyl]-2-hydroxy-ethanone], the melting point is 128 to 128.5 °C. Besides, the midpoint of inhibition in data set [1], the IC50, lay at 20 nM. In data set [2], this compound displayed an IC50 of 6.5 nM.
`C#Cc1ccc(Nc2c(C(=O)c3ccccn3)ccc(F)c2F)c(F)c1` [Example 2, [2-(4-Ethynyl-2-fluoro-phenylamino)-3,4-difluoro-phenyl]-pyridin-2-yl-methanone] yielded a melting point of 109 to 111 °C.
Consider `C#Cc1ccc(Nc2c(C(=O)c3nccs3)ccc(F)c2F)c(F)c1` [Example 3, [2-(4-Ethynyl-2-fluoro-phenylamino)-3,4-difluoro-phenyl]-thiazol-2-yl-methanone], for which the melting point worked out at 161 °C.
`C#Cc1ccc(Nc2c(C(=O)c3nccn3C)ccc(F)c2F)c(F)c1` [Example 4, [2-(4-Ethynyl-2-fluoro-phenylamino)-3,4-difluoro-phenyl]-(1-methyl-1H-imidazol-2-yl)-methanone]: the melting point turned out to be 166 °C.
Compound `Cc1coc(C(=O)c2ccc(F)c(F)c2Nc2ccc(I)cc2F)n1` [Example 5, [3,4-Difluoro-2-(2-fluoro-4-iodo-phenylamino)-phenyl]-(4-methyl-oxazol-2-yl)-methanone] gave a melting point of 127 °C. Further, the IC50 in data set [2] is 287 nM.
Compound `C#Cc1ccc(Nc2c(C(C)=O)ccc(F)c2F)c(F)c1` [Example 10, 1-[2-(4-Ethynyl-2-fluoro-phenylamino)-3,4-difluoro-phenyl]-ethanone] displayed a melting point of 78 to 80 °C.

The IC50 is the concentration that gives 50% inhibition. Lower therefore signals inhibition by little substance. By melting point is commonly meant the temperature of the solid-liquid transition.

The record behind these values is US20050059710A1, “Diphenylamino ketone derivatives as MEK inhibitors” (Pfizer Inc, priority 2003, published 2005).
